The text below walks through data of patent US8410141B2, “Insecticidal arylpyrrolines” (Bayer Cropscience AG, priority 2009, dated 2013).

The structures appear in SMILES notation.

Holding throughout (type): in vivo
Assay [1] concerns Tobacco Cutworm (Spodoptera litura) Larvae. Put plainly: Test against tobacco cutworm (Spodoptera litura) larvae, leaf immersion. As to conditions: 100 ppm; sweet potato leaves immersed; third-instar larvae; after 7 days. On the procedure: (§1) Unless not mentioned otherwise, the test solutions were prepared as follows:
(§2) Containing as solvent: Dimethylformamide, 3 parts by weight; and as emulsifier: Polyoxyethylene alkyl phenyl ether, 1 part by weight. To prepare the test solution, 1 part by weight of an active compound is mixed with the above-mentioned amount of solvent containing the above-mentioned amount of emulsifier, and the mixture is diluted with water to the desired concentration.
The leaves of sweet potato were immersed in the test solution at the appropriate concentration, and the leaves were dried in air. The leaves were then placed in a petri dish having a diameter of 9 cm, and ten third-instar larvae of tobacco cutworm were released therein. The petri dish was placed in a temperature-controlled chamber at 25° C. After 2 days and 4 days sweet potato leaves were additionally added. After 7 days, the number of dead larvae was counted to calculate the insecticidal activity. An insecticidal activity of 100% means that all larvae were killed, whereas an insecticidal activity of 0% means that no larva was killed. In the current test, the results of two petri dishes for each partition were averaged.

Assay [2] relates to Two-Spotted Spider Mite (Tetranychus urticae). Put plainly: Test against two-spotted spider mite (Tetranychus urticae), spray. As to conditions: 100 ppm; sprayed on kidney bean; adult mites; after 7 days. On the procedure: as §1, §2
50 to 100 adult two-spotted spider mites were inoculated onto the leaves of kidney beans at the two-true leaf stage, which plant had been cultivated in a pot having a diameter of 6 cm. After one day, test solution at the appropriate concentration was sprayed thereon in a sufficient amount using a spray gun. After the spraying, the plant pot was placed inside a greenhouse, and after 7 days, the acaricidal activity was calculated. An acaricidal activity of 100% means that all mites were killed, whereas an acaricidal activity of 0% means that no mite was killed.

Assay [3] has as its system Cucurbit Leaf Beetle (Aulacophora femoralis). Put plainly: Test against cucurbit leaf beetle (Aulacophora femoralis), leaf immersion. As to conditions: 100 ppm; cucumber leaves immersed; second-instar larvae; after 7 days. On the procedure:
as §1, §2
Cucumber leaves were immersed in the test solution at the appropriate concentration, and the leaves were dried in air. The leaves were then placed in a plastic cup containing sterilized black soil, and five second-instar larvae of cucurbit leaf beetle were released therein. The plastic cup was placed in a temperature-controlled chamber at 25° C. After 7 days, the number of dead larvae was counted, and thus the insecticidal activity was calculated. An insecticidal activity of 100% means that all beetles were killed, whereas an insecticidal activity of 0% means that no beetle was killed.

In assay [4] the test system is Tobacco Cutworm (Spodoptera litura) Larvae. Put plainly: Test against tobacco cutworm larvae, root systemicity. As to conditions: 100 ppm; broccoli seedling roots dipped 3 days; second-instar larvae; after 4 days. The procedure:
as §1, §2
The roots of seedling of broccoli at 1.2 leaf stage were dipped into the test solution at the appropriate concentration. After 3 days, the leaves were cut and placed in a petri dish having a diameter of 9 cm. And then five second-instar larvae of tobacco cutworm were released therein. The petri dish was placed in a temperature-controlled room at 25° C. After 4 days, the number of dead larvae was counted, to calculate the insecticidal activity. An insecticidal activity of 100% means that all larvae were killed, whereas an insecticidal activity of 0% means that no larva was killed.

For `N#Cc1cc(C2=NCC(c3ccc(F)c(C(F)(F)F)c3)(C(F)(F)F)C2)ccc1-n1cncn1` (stereo not drawn) [1-4], the insecticidal activity in assay [1], in assay [3] and in assay [4] was 100% throughout. Besides, the acaricidal activity rate in assay [2] was 100%.
In the case of `N#Cc1cc(C2=NCC(c3cc(Cl)c(Br)c(Cl)c3)(C(F)(F)F)C2)ccc1-n1cncn1` (stereo not drawn) [1-15], the insecticidal activity in assay [1] and in assay [3] was 100% in each case. The compound also displayed an acaricidal activity rate in assay [2] of 100%.
On to `FC(F)(F)C1(c2cc(Cl)c(Cl)c(Cl)c2)CN=C(c2ccc(-n3cncn3)cc2)C1` (stereo not drawn) [1-27], for which the insecticidal activity in assay [1] and in assay [3] was 100% in each case. For the same compound, the acaricidal activity rate in assay [2] is 100%.
On to `FC(F)(F)C1(c2cc(Cl)c(Cl)c(Cl)c2)CN=C(c2ccc(-n3cncn3)c(Br)c2)C1` (stereo not drawn) [1-31], for which the insecticidal activity in assay [1] and in assay [3] was 100% throughout. In assay [2], this compound showed an acaricidal activity rate of 100%.
For the compound `FC(F)(F)c1cc(C2=NCC(c3cc(Cl)c(Cl)c(Cl)c3)(C(F)(F)F)C2)ccc1-n1cncn1` (stereo not drawn) [1-34], the insecticidal activity in assay [1] and in assay [3] was 100% in each case.
In the case of `O=[N+]([O-])c1cc(C2=NCC(c3cc(Cl)c(Cl)c(Cl)c3)(C(F)(F)F)C2)ccc1-n1cncn1` (stereo not drawn) [1-35], the insecticidal activity in assay [1] and in assay [3] was 100% each time. In addition, in assay [2], the acaricidal activity rate is recorded as 100%.
Consider `N#Cc1cc(C2=NCC(c3cc(C(F)(F)F)cc(Cl)n3)(C(F)(F)F)C2)ccc1-n1cncn1` (stereo not drawn) [1-84], for which the insecticidal activity in assay [1], in assay [3] and in assay [4] was 100% in each case. In addition, the acaricidal activity rate in assay [2] is 100%.
As for `FC(F)(F)C1(c2cc(Cl)c(Cl)c(Cl)c2)CN=C(c2ccc(-n3cncn3)nc2)C1` (stereo not drawn) [1-110], the insecticidal activity in assay [1] and in assay [3] was 100% throughout. The compound also came in with an acaricidal activity rate in assay [2] of 100%.
As to `N#Cc1cc(C2=NCC(c3ccnc(C(F)(F)C(F)(F)F)c3)(C(F)(F)F)C2)ccc1-n1cncn1` (stereo not drawn) [1-156], the insecticidal activity in assay [1] and in assay [3] was 100% throughout. The acaricidal activity rate in assay [2] was 100%.
Compound `Cc1ccc(C2(C(F)(F)F)CN=C(c3ccc(-n4cncn4)c(C#N)c3)C2)cc1[N+](=O)[O-]` (stereo not drawn) [1-174] showed an acaricidal activity rate in assay [2] of 100%.
For the compound `Cc1cc([N+](=O)[O-])cc(C2(C(F)(F)F)CN=C(c3ccc(-n4cncn4)c(C#N)c3)C2)c1` (stereo not drawn) [1-180], the acaricidal activity rate in assay [2] was found to be 100%.
On to `N#Cc1cc(C2=NCC(c3cncc(C(F)(F)F)c3)(C(F)(F)F)C2)ccc1-n1cncn1` (stereo not drawn) [1-481], for which the insecticidal activity in assay [1] and in assay [3] was 100% in each case.
For the compound `N#Cc1cc(C2=NCC(c3cc(C(F)(F)F)ccc3F)(C(F)(F)F)C2)ccc1-n1cncn1` (stereo not drawn) [1-482], the insecticidal activity in assay [1] and in assay [3] was 100% each time. Also, the acaricidal activity rate in assay [2] is 100%.
For `N#Cc1cc(C2=NCC(c3ccnc(Cl)c3)(C(F)(F)F)C2)ccc1-n1cncn1` (stereo not drawn) [1-484], the acaricidal activity rate in assay [2] amounted to 100%. Further, the insecticidal activity in assay [3] was found to be 100%.
In the case of `N#Cc1cc(C2=NCC(c3cc(Cl)cc(Cl)c3Cl)(C(F)(F)F)C2)ccc1-n1cncn1` (stereo not drawn) [1-488], the insecticidal activity in assay [1] and in assay [3] was 100% in each case. In addition, the acaricidal activity rate in assay [2] worked out at 100%.
Turning to `FC(F)(F)C1(c2cc(Cl)nc(Cl)c2)CN=C(c2cnc(-n3cncn3)c(Cl)c2)C1` (stereo not drawn) [1-490], the insecticidal activity in assay [1] and in assay [3] was 100% each time.
Take `FC(F)(F)c1cc(C(F)(F)F)cc(C2(C(F)(F)F)CN=C(c3cnc(-n4cncn4)c(Cl)c3)C2)c1` (stereo not drawn) [1-491]: the insecticidal activity in assay [1] and in assay [3] was 100% in each case.
Turning to `N#Cc1cc(C2=NCC(c3cc(Cl)nc(C(F)(F)F)c3)(C(F)(F)F)C2)ccc1-n1cncn1` (stereo not drawn) [1-492], the insecticidal activity in assay [1], in assay [3] and in assay [4] was 100% throughout. In assay [2], this compound showed an acaricidal activity rate of 100%.
For the compound `N#Cc1cc(C2=NCC(c3cc(C(F)(F)F)cc(C(F)(F)F)c3)(C(F)(F)F)C2)cnc1-n1cncn1` (stereo not drawn) [1-494], the insecticidal activity in assay [1] and in assay [3] was 100% throughout.
As to `N#Cc1cc(C2=NCC(c3cc(Br)c4c(c3)OC(F)(F)O4)(C(F)(F)F)C2)ccc1-n1cncn1` (stereo not drawn) [1-496], the insecticidal activity in assay [1] and in assay [3] was 100% in each case. In assay [2], this compound showed an acaricidal activity rate of 100%.
With `N#Cc1cc(C2=NCC(c3cc(OC(F)F)cc(C(F)(F)F)c3)(C(F)(F)F)C2)ccc1-n1cncn1` (stereo not drawn) [1-497], the insecticidal activity in assay [1], in assay [3] and in assay [4] was 100% in each case.
Consider `N#Cc1cc(C2=NCC(c3cc(Cl)cc(Cl)c3)(C(F)(F)Cl)C2)ccc1-n1cncn1` (stereo not drawn) [1-506], for which the insecticidal activity in assay [1] and in assay [3] was 100% throughout. The same compound had an acaricidal activity rate in assay [2] of 100%.
`Cc1cc(C2=NCC(c3cc(Cl)c(Cl)c(Cl)c3)(C(F)(F)F)C2)ccc1CN` (stereo not drawn) [2-76]: in assay [1], the insecticidal activity was 100%.
Turning to `CC(=O)NCc1ccc(C2=NCC(c3cc(Cl)c(Cl)c(Cl)c3)(C(F)(F)F)C2)cc1` (stereo not drawn) [2-168], the insecticidal activity in assay [1] and in assay [3] was 100% in each case. The acaricidal activity rate in assay [2] came out at 100%.
As to `CCC(=O)NCc1ccc(C2=NCC(c3cc(Cl)c(Cl)c(Cl)c3)(C(F)(F)F)C2)cc1` (stereo not drawn) [2-169], the insecticidal activity in assay [1] and in assay [3] was 100% throughout. In assay [2], this compound displayed an acaricidal activity rate of 100%.
In the case of `O=C(CC(F)(F)F)NCc1ccc(C2=NCC(c3cc(Cl)c(Cl)c(Cl)c3)(C(F)(F)F)C2)cc1` (stereo not drawn) [2-170], the insecticidal activity in assay [1] and in assay [3] was 100% each time. For the same compound, the acaricidal activity rate in assay [2] is given as 100%.
Regarding `Cc1cc(C2=NCC(c3cc(C(F)(F)F)cc(C(F)(F)F)c3)(C(F)(F)F)C2)ccc1CN` (stereo not drawn) [2-547], the insecticidal activity in assay [1] is 100%.
On to `Cc1cc(C2=NCC(c3cc(C(F)(F)F)cc(C(F)(F)F)c3)(C(F)(F)F)C2)ccc1CNC(=O)OC(C)(C)C` (stereo not drawn) [2-548], for which the insecticidal activity in assay [1] and in assay [3] was 100% in each case. In addition, the acaricidal activity rate in assay [2] came out at 100%.
Regarding `CCC(=O)NCc1ccc(C2=NCC(c3cc(Cl)nc(Cl)c3)(C(F)(F)F)C2)cc1C(F)(F)F` (stereo not drawn) [2-2151], the insecticidal activity in assay [1] and in assay [3] was 100% in each case. Besides, the acaricidal activity rate in assay [2] is 100%.
For the compound `CC(=O)NCc1ccc(C2=NCC(c3cc(C(F)(F)F)nc(C(F)(F)F)c3)(C(F)(F)F)C2)cc1Br` (stereo not drawn) [2-2732], the insecticidal activity in assay [1] and in assay [3] was 100% in each case. The compound also displayed an acaricidal activity rate in assay [2] of 100%.
On to `CCC(=O)NCc1ccc(C2=NCC(c3cc(C(F)(F)F)nc(C(F)(F)F)c3)(C(F)(F)F)C2)cc1Br` (stereo not drawn) [2-2733, N-(4-{3-[2,6-bis(trifluoromethyl)pyridin-4-yl]-3-(trifluoromethyl)-3,4-dihydro-2H-pyrrol-5-yl}-2-bromobenzyl)propanamide], for which the insecticidal activity in assay [1] and in assay [3] was 100% in each case. Moreover, in assay [2], the acaricidal activity rate worked out at 100%.
Consider `CSCC(=O)NCc1ccc(C2=NCC(c3cc(C(F)(F)F)nc(C(F)(F)F)c3)(C(F)(F)F)C2)cc1Br` (stereo not drawn) [2-2737], for which the insecticidal activity in assay [1] and in assay [3] was 100% throughout. In assay [2], this compound came in with an acaricidal activity rate of 100%.
As to `CS(=O)(=O)CC(=O)NCc1ccc(C2=NCC(c3cc(C(F)(F)F)nc(C(F)(F)F)c3)(C(F)(F)F)C2)cc1Br` (stereo not drawn) [2-2739], the insecticidal activity in assay [1] and in assay [3] was 100% in each case. The same compound yielded an acaricidal activity rate in assay [2] of 100%.
Take `CCC(=O)NC(C)c1ccc(C2=NCC(c3cc(C(F)(F)F)nc(C(F)(F)F)c3)(C(F)(F)F)C2)cc1` (stereo not drawn) [2-2872]: the insecticidal activity in assay [1] and in assay [4] was 100% throughout.
